From patent US10399970B2, “Pyrridinobenzodiazepine and benzopyrridodiazecine compounds” (FEMTOGENIX LIMITED, priority 2015, dated 2019)

Assays:
[1] = Phase I clinical evaluation; cited from earlier work
[2] = tested on: cancer cell lines; settings: some cancer cell lines; cited from earlier work
[3] = tested on: MDA MB231 (triple negative human breast cancer); experiment: Cytotoxicity analysis by MTT assay; format: cell-based; settings: MDA-MB-231, 96 hours exposure, read-out: IC50 (nanomolar) MDA MB 231 (Triple negative breast cancer cell line)
Protocol: MDA MB231 (triple negative human breast cancer) was obtained from the American Type Culture Collection. The cell-line was maintained in monolayer culture in 75 cm^2 flasks (TPP, Switzerland) under a humidified 5% CO2 atmosphere at 37° C. The MDA MB231 cell line was maintained in high glucose DMEM (4.5 g\l; Invitrogen), foetal bovine serum (10%, Biosera UK), non-essential amino acids (ix; Invitrogen), L-glutamine (2 mM; Invitrogen) and Penicillin-Streptomycin (1% v/v, Invitrogen). For passaging, cells were washed with PBS (GIBCO 14040, Invitrogen, UK), incubated with trypsine (GIBCO 25300, Invitrogen, UK), and re-seeded into fresh medium. For seeding, cells were counted using a Neubauer haemocytometer (Assistant, Germany) by microscopy (Nikon, USA) on a non-adherent suspension of cells that were washed in PBS, trypsinised, centrifuged at 8° C. at 8000 rpm for 5 min and re-suspended in fresh medium.
The cells were grown in normal cell culture conditions at 37° C. under a 5% CO2 humidified atmosphere using appropriate medium. […] After 96 h of continuous exposure to each compound, the cytotoxicity was determined using the 3-(4,5-Dimethylthiazol-2-yl)-2,5-diphenyltetrazolium bromide (MTT) (Lancaster Synthesis Ltd, UK) colorimetric assay. Absorbance was quantified by spectrophotometry at X=570 nm (Envision Plate Reader, PerkinElmer, USA). […]

In the case of `C=C1C[C@H]2C=Nc3cc(OCCCOc4cc5c(cc4OC)C(=O)N4CC(=C)C[C@H]4C=N5)c(OC)cc3C(=O)N2C1`, the adverse effects [1] is listed as “lower-limb edema and fatigue”.
For `COC(=O)c1cc(-c2ccc(NC(=O)c3nc(NC(=O)CCCOc4cc5c(cc4OC)C(=O)N4CCC[C@H]4C=N5)cn3C)cc2)cn1C`, the cytotoxic activity range [2] is given as “femtomolar range”.
With `COC(=O)c1cc2cc(NC(=O)c3cc(NC(=O)CO[C@@H]4CCN5C(=O)c6cc(OC)c(OC)cc6N=C[C@@H]5C4)cn3C)ccc2s1` [Compound 23, Methyl 5-(4-(2-(((6aS,8R)-2,3-dimethoxy-12-oxo-6a,7,8,9,10,12-hexahydrobenzo[e]pyrido[1,2-a][1,4]diazepin-8-yl)oxy)acetamido)-1-methyl-1H-pyrrole-2-carboxamido)benzo[b]thiophene-2-carboxylate] the IC50 [3] was 221 nM.
